Source: US6750208B1, “Medicine for treating apoptosis dysfunction containing oligosaccharides” (Laboratoires Goemar S.A., priority 1998, dated 2004)

system: cells as in Example 1, FasAb-induced apoptosis; assay: effect of I9 fractions on low dose FasAb-induced apoptosis (Example 3); type: cell-based; conditions: 0.2 mg/ml simultaneously with 100 ng/ml FasAb of Euromedex origin; 24 hours of incubation
Method: The effect induced by various constituents of this mixture, in particular of fractions DP 2, DP 3, DP 4, DP 5 and DP 7, was tested.
The polymer constituting the raw material of I9 was also tested, as was the product named KIK (hexasaccharide of type kappa-iota-kappa).
For these experiments, the procedure was carried out as in Example 1, simultaneously introducing, on the one hand, 0.2 mg/ml of each of the abovementioned fractions of I9 and, on the other hand, 100 ng/ml of FasAb of Euromedex origin.
After 24 hours of incubation, the findings summarized below were made.

| Substance | stimulatory effect on FasAb-induced apoptosis |
| --- | --- |
| iota-neocarradecaose [DP 5] | inactive |
| oligo-iota-carrageenan [DP 7] | 50% |
| iota-neocarraoctaose [DP 4] | inactive |
| iota-neocarrahexaose [DP 3] | inactive |
| iota-neocarraletraose [DP 2] | inactive |
| iota-carrageenan | active |
